Like-named read-outs stand apart in the source and are kept apart here.
Columns and labels:
[1] = system: E. coli #8739; assay: Fluorimeter (spectrofluorimetry) spectra, SIR and NVP of dye-stained bacteria; type: cell-based
[2] = system: E. coli #8739; assay: Flow-Cytometry SIR and NVP of dye-stained bacteria; type: cell-based; settings: for NVP calculation / SIR calculation: 670 (14)/780 (60) nm channels
[3] = system: E. coli - #25922; assay: Flow-Cytometry NVP of dye-stained bacteria; type: cell-based; settings: FM 1-43 staining
[4] = system: E. coli - O157; type: cell-based, E. coli O157:H7 (EHEC)
[5] = system: Entrobacter cloacae; assay: Flow-Cytometry NVP of dye-stained bacteria; type: cell-based, E. cloacae
[6] = system: Entrobacter aerogenes; assay: Flow-Cytometry NVP of dye-stained bacteria; type: cell-based, E. aerogenes
[7] = system: Pseudomonas aeruginosa; assay: Flow-Cytometry NVP of dye-stained bacteria; type: cell-based, Ps. Aeruginosa
[8] = system: Enterococcus faecalis; assay: Flow-Cytometry SIR and NVP of dye-stained bacteria; type: cell-based, E. faecalis
[9] = system: Bacillus subtillis; assay: Flow-Cytometry NVP of dye-stained bacteria; type: cell-based, B. subtilis
[10] = system: Enterococcus faecium; assay: Flow-Cytometry NVP of dye-stained bacteria; type: cell-based, E. faecium
[11] = system: S. aureus; assay: Flow-Cytometry NVP of dye-stained bacteria; type: cell-based
[12] = system: E. coli K12 (MG1655); assay: Flow-Cytometry SIR analysis of E. coli K12 grown with ampicillin (FM 1-43 staining); type: cell-based; settings: 1 hour
Description: The disclosed method was further validated in studies using E. coli K12 (MG1655, obtained from ATCC). After 5 hours of growth in medium, E. coli were divided into three groups: (A) grown for one hour with no antibiotics, (B) grown for one hour with 700 micrograms of ampicillin, and (C) grown for one hour with 1500 micrograms of ampicillin.
The bacteria were suspended in PBS and stained with FM® 1-43 (43N-(3-Triethylammoniumpropyl)-4-(4-(Dibutylamino) Styryl) Pyridinium Dibromide) ([…] as per the methodology described earlier.
Flow-Cytometry measurements of the stained bacterial samples were performed. In order to adjust the flow-cytometry to the spectral characterization as shown in the fluorescence spectra of the FM® 1-43 (43N-(3-Triethylammoniumpropyl)-4-(4-(Dibutylamino) Styryl) Pyridinium Dibromide) stained bacteria, the […] nm excitation channel of the flow-cytometry and two fluorescence channel using 530 (30) nm and 610 (20) nm as the λ1 and λ2 for the SIR calculation were used. The results are tabulated below and depicted in FIG. 14.

CCCCN(CCCC)c1ccc(/C=C/c2cc[n+](CCC[N+](CC)(CC)CC)cc2)cc1.[Br-].[Br-] [FM® 1-43, N-(3-Triethylammoniumpropyl)-4-(4-(Dibutylamino) Styryl) Pyridinium Dibromide]
Non-Viability Parameter (NVP) ([1]; 85°, 15 min): ~5
SIR (I610/I530) ([1]; 85°, 15 min): ~7
Non-Viability Parameter (NVP) ([1]; Chlorine 0.05%): ~5
SIR (I610/I530) ([1]; Chlorine 0.05%): ~8
Non-Viability Parameter (NVP) ([1]; Ethanol 70%): ~3
SIR (I610/I530) ([1]; Ethanol 70%): 4.4
SIR (I610/I530) ([1]; Live bacteria): ~1.5
Non-Viability Parameter (NVP) ([1]; UV-LP 30 mJ): 1
SIR (I610/I530) ([1]; UV-LP 30 mJ): 1
Non-Viability Parameter (NVP) ([1]; UV-MP 30 mJ): ~2
SIR (I610/I530) ([1]; UV-MP 30 mJ): 3.7
Non-Viability Parameter (NVP) ([2]; 85°, 15 min): 9
SIR (610/530) Ratio ([2]; 85°, 15 min): 8.8
Non-Viability Parameter (NVP) ([2]; Chlorine 0.05%): 10
SIR (610/530) Ratio ([2]; Chlorine 0.05%): 9.6
Non-Viability Parameter (NVP) ([2]; Ethanol 70%): 7
SIR (610/530) Ratio ([2]; Ethanol 70%): 6.5
NVP values ([2]; FM 1-43 staining, Chlorine): 10
NVP values ([2]; FM 1-43 staining, Heated): 9
NVP values ([2]; FM 1-43 staining, UV-MP): 5
SIR (610/530) Ratio ([2]; Live bacteria): 0.73
Non-Viability Parameter (NVP) ([2]; UV-LP 30 mJ): 1
SIR (610/530) Ratio ([2]; UV-LP 30 mJ): 0.7
Non-Viability Parameter (NVP) ([2]; UV-MP 30 mJ): 5
SIR (610/530) Ratio ([2]; UV-MP 30 mJ): 3.5
NVP values ([3]; Chlorine): 9
NVP values ([3]; Heated): 7
NVP values ([3]; UV-MP): 5
NVP values [4]: ~10
NVP values ([4]; FM 1-43 staining, Heated): ~10
NVP values ([5]; FM 1-43 staining, Chlorine): 10
NVP values ([5]; FM 1-43 staining, Heated): 8
NVP values ([5]; FM 1-43 staining, UV-MP): 5
NVP values ([6]; FM 1-43 staining, Chlorine): 12
NVP values ([6]; FM 1-43 staining, Heated): 8
NVP values ([6]; FM 1-43 staining, UV-MP): 4.5
NVP values ([7]; FM 1-43 staining, Chlorine): 5
NVP values ([7]; FM 1-43 staining, Heated): 4.6
NVP values ([7]; FM 1-43 staining, UV-MP): 3.2
NVP ([8]; 530(30)/610(20), Chlorine): 2
NVP ([8]; 530(30)/610(20), Heated): 1.6
NVP ([8]; 530(30)/610(20), UV-MP): 1.1
SIR: 530(30)/610(20) ([8]; Chlorine): 13
NVP values ([8]; FM 1-43 staining, Chlorine): 2
NVP values ([8]; FM 1-43 staining, Heated): 1.6
NVP values ([8]; FM 1-43 staining, UV-MP): 1.1
SIR: 530(30)/610(20) ([8]; Heated): 10.3
SIR: 530(30)/610(20) ([8]; Live): 6.5
SIR: 530(30)/610(20) ([8]; UV-MP): 7.1
NVP values ([9]; FM 1-43 staining, Chlorine): 1.5
NVP values ([9]; FM 1-43 staining, Heated): 1.2
NVP values ([9]; FM 1-43 staining, UV-MP): 1.2
NVP values ([10]; FM 1-43 staining, Chlorine): 1.7
NVP values ([10]; FM 1-43 staining, Heated): 1.6
NVP values ([11]; FM 1-43 staining, Chlorine): 1.7
NVP values ([11]; FM 1-43 staining, Heated): 1.6
NVP values ([11]; FM 1-43 staining, UV-MP): 1.1

CCN(CC)c1ccc(C=CC=CC=Cc2cc[n+](CCC[N+](CC)(CC)CC)cc2)cc1.[Br-].[Br-] [FM® 4-64, N-(3-Triethylammoniumpropyl)-4-(6-(4-(Diethylamino) Phenyl) Hexatrienyl) Pyridinium Dibromide]
NVP calculation ([2]; Chlorinated): 3.4
SIR calculation ([2]; Chlorinated): 12
NVP calculation ([2]; Heated (85°, 15 min)): 4
SIR calculation ([2]; Heated (85°, 15 min)): 14
SIR calculation ([2]; Live): 3.5
NVP calculation ([2]; UV-MP): 3.7
SIR calculation ([2]; UV-MP): 13
NVP values ([2]; FM 4-64 staining, Chlorine): 3.4
NVP values ([2]; FM 4-64 staining, Heated): 4
NVP values ([2]; FM 4-64 staining, UV-MP): 3.7
NVP values ([5]; FM 4-64 staining, Chlorine): 4.5
NVP values ([5]; FM 4-64 staining, Heated): 3.7
NVP values ([5]; FM 4-64 staining, UV-MP): 2.5
NVP values ([6]; FM 4-64 staining, Chlorine): 4.5
NVP values ([6]; FM 4-64 staining, Heated): 3.3
NVP values ([6]; FM 4-64 staining, UV-MP): 1.7
NVP values ([7]; FM 4-64 staining, Chlorine): 2
NVP values ([7]; FM 4-64 staining, Heated): 1.8
NVP ([8]; 670(14)/780(60), Chlorine): 2.9
NVP ([8]; 670(14)/780(60), Heated): 3
NVP ([8]; 670(14)/780(60), UV-MP): 1.2
SIR: 670(14)/780(60) ([8]; Chlorine): 19.7
NVP values ([8]; FM 4-64 staining, Chlorine): 2.9
NVP values ([8]; FM 4-64 staining, Heated): 3
NVP values ([8]; FM 4-64 staining, UV-MP): 1.2
SIR: 670(14)/780(60) ([8]; Heated): 20
SIR: 670(14)/780(60) ([8]; Live): 6.7
SIR: 670(14)/780(60) ([8]; UV-MP): 8.1
NVP values ([9]; FM 4-64 staining, Chlorine): 1.5
NVP values ([9]; FM 4-64 staining, Heated): 1.8
NVP values ([10]; FM 4-64 staining, Chlorine): 3
NVP values ([10]; FM 4-64 staining, Heated): 3
NVP values ([11]; FM 4-64 staining, Chlorine): 2.4
NVP values ([11]; FM 4-64 staining, Heated): 3
NVP values ([11]; FM 4-64 staining, UV-MP): 1.1

CC1(C)S[C@@H]2[C@H](NC(=O)[C@H](N)c3ccccc3)C(=O)N2[C@H]1C(=O)O [ampicillin]
% from population ([12]; 700 μg ampicillin, DEAD gate): 15%
SIR ([12]; 700 μg ampicillin, DEAD gate): 4.4
% from population ([12]; 700 μg ampicillin, LIVE gate): 83.7%
SIR ([12]; 700 μg ampicillin, LIVE gate): 1
% from population ([12]; 1500 μg ampicillin, DEAD gate): 20%
SIR ([12]; 1500 μg ampicillin, DEAD gate): 5.3
% from population ([12]; 1500 μg ampicillin, LIVE gate): 78%
SIR ([12]; 1500 μg ampicillin, LIVE gate): 1
